The numbers were not newly measured in patent US7838691B2, “Palmerolides: methods of preparation and derivatives thereof” (Board of Regents, of the University of Texas System, priority 2007, dated 2010), which cites them from elsewhere.

For one data set, the target named is bovine brain V-ATPase. Particulars: in vitro.
The test system of data set [1] is several cancer cell lines including melanoma, colon cancer, and renal cancer.

In the case of `CC(C)=CC(=O)N/C=C/C(C)=C/[C@@H](C)[C@H]1C/C(C)=C/C=C/CC[C@H](OC(N)=O)[C@@H](O)/C=C/[C@@H](O)CCC/C=C/C(=O)O1` [Palmerolide A], the IC50 – broadly, the concentration that gives 50% inhibition – on bovine brain V-ATPase was approximately 2 nM. For the same compound, the cytotoxicity entry in data set [1] is on record as “selective cytotoxin”.
